SMILES strings stand for the structures. Like-named read-outs stand apart in the source and are kept apart here.

For this test, the target named is T1, GLUT2∆loopS_Q455R (Homo sapiens, UniProt P11168, Q455R, form not given).
T1 sequence (P11168 1-524 Q455R): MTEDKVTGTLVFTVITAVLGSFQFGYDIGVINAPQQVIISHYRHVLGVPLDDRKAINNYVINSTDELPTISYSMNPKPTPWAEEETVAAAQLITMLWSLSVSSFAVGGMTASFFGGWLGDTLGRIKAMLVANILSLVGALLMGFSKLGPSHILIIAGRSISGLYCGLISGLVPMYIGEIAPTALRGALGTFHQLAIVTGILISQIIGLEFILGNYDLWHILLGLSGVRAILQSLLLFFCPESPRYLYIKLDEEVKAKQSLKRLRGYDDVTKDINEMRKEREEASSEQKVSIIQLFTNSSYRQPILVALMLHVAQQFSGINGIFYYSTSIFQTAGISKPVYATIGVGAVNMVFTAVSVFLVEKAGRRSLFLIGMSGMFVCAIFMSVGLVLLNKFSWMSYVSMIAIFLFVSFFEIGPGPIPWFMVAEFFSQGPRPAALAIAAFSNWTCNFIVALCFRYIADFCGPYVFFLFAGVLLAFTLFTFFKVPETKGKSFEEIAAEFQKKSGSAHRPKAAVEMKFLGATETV
The test is described as follows: Glucose transport assay, GLUT2∆loopS_Q455R expressed in hxt^0 yeast cells EBY.S7. Format: cell-based. The source says: The most studied GLUTs are Class 1 GLUTs (GLUT1-4) and a Class 2 GLUT, GLUT5 (a fructose-only transporter). GLUT3 sequence homology and identity is 79% and 64%, 71% and 52%, 74% and 57%, and 60% and 38% with GLUT1, GLUT2, GLUT4, and GLUT5, respectively. The hxt^0 yeast cell systems expressing functional GLUT1-4[65],[69] and GLUT5[66] allow us to determine the in vivo transport activity (substrate uptake by a GLUT into whole cells) for individual GLUTs and establish GLUT3 inhibitor selectivity for these transporters. The transport assay was performed as described for GLUT3, but at the substrate concentrations that correspond to the KM for each GLUT (i.e., 5 mM glucose for GLUT1 and GLUT4[65], 15 mM glucose for GLUT2∆loopS_Q455R[63], and 10 mM fructose for GLUT5S72Y[66]).
The transport activity was assayed as the substrate uptake in hexose transporter-deficient yeast cells expressing functional GLUT1[65], GLUT2[69], GLUT4[65], or GLUT5[66]. Substrate final concentration in the assay matched the corresponding substrate KM and was 5 mM glucose for GLUT1 and GLUT4, 15 mM glucose for GLUT2∆loopS_Q455R, and 10 mM fructose for GLUT5S72Y. Transport assay was initiated by the addition of C^14-labeled substrate and stopped after 10 min (see “Materials and methods” for details). […] Standard deviations for experimental points come from at least three independent measurements.
The plasmids containing functional constructs of GLUT1-5 were transformed in the corresponding hxt^0 strains[65],[66],[73] (EBY.VW4000 for GLUT5S72Y, EBY.S7 for GLUT1, GLUT2∆loopS_Q455R, GLUT3 and GLUT3S66Y, and SDY.022 for GLUT4) and grown on 2% (w/v) agar plates of the respective media supplemented with 1% (w/v) maltose. An initial culture of ~ 10 ml was started with a few colonies and grown for 2–3 days if the media was SC-uracil with 1% (w/v) maltose (GLUT1, GLUT3, GLUT4) or 1–2 days if the media was YEP with 1% (w/v) maltose and 100 µg/ml geneticin G418 (GLUT2∆loopS_Q455R and GLUT5S72Y). Cells were washed once in the corresponding media in which maltose was substituted with 0.1–2% hexose substrate for the expressing GLUT (i.e., SC-uracil, 2% (w/v) glucose for GLUT1; SC-uracil, 0.2% (w/v/) glucose for GLUT3 and GLUT4; YEP, 0.2% (w/v) glucose, 100 µg/ml geneticin G418 for GLUT2∆loopS_Q455R, and YEP, 2% (w/v) fructose for GLUT5 S72Y). Then, cells were transferred in the same media so that OD600nm ~ 0.5 and grown further for 1–2 days.
For transport activity assay, cells in the hexose media were centrifuged (1000×g, 5 min, room temperature), washed once with PBS buffer (10 mM Na2HPO4, 1.8 mM KH2PO4, 2.7 mM KCl, 137 mM NaCl, pH 7.4), and resuspended in PBS buffer at an OD600nm ~ 10; each assay contained 100 µl of this cell solution. Transport activity assay was started by adding C^14-hexose at a substrate concentration corresponding to the respective KM (5 mM glucose for GLUT1 or GLUT4, 3 mM glucose for GLUT3 or 1.5 mM glucose for GLUT3S66Y, 15 mM glucose for GLUT2∆loopS_Q455R, and 10 mM fructose for GLUT5S72Y); for determining the glucose KM in GLUT3 and GLUT3S66Y, substrate concentrations were varied accordingly. […] The filtration membranes were transferred into scintillation vials with 10 ml of Scintillation Solution (BioSafeII; Research Products International, Mount Prospect, IL, USA), and vortexed briefly. The radioactivity was determined with a scintillation counter (Tri-carb 2900TR, Perkin Elmer, USA).

Setting [1] is: GLUT2∆loopS_Q455R in hxt^0 yeast cells, 15 mM glucose; read-out: IC50 for GLUT2 transport inhibition.

Consider `Cc1cccnc1OC1CCN(c2cc(N3CCCC3CO)ncn2)CC1` (stereo not shown) [G3iC], for which the half-maximal inhibitory concentration (IC50) (usually the concentration at which inhibition is half-maximal) under setting [1] is greater than 50 µM. Still for that read-out and setting: the figure for `O=C(Nc1cccc(Cl)c1)c1cccc(NC(=O)c2cccc([N+](=O)[O-])c2)c1` [G3iE, N-{3-[(3-chloroanilino)carbonyl]phenyl}-3-nitrobenzamide] is greater than 50 µM. For `Cc1cc(NC(=O)CCC2Cc3ccccc3NC2=O)nc(-c2ccccc2)n1` (stereo not shown) [G3iD], the IC50 under setting [1] came to 40 ± 3.7 µM.

On to `COc1ccccc1-n1c(/C=C/c2ccc(O)cc2)nc2ccc(Br)cc2c1=O` [G3iB, 6-bromo-2-[(E)-2-(4-hydroxyphenyl)ethenyl]-3-(2-methoxyphenyl)quinazolin-4(3H)-one], for which the IC50 (read-out: IC50 for GLUT2 transport inhibition; GLUT2∆loopS_Q455R in hxt^0 yeast cells, 15 mM glucose) is greater than 50 µM. Consider `CC(=O)Nc1ccc(S(=O)(=O)Nc2ccc(Nc3cc(N(C)C)nc(C)n3)cc2)cc1` [G3iA, N-(4-{[(4-{[6-(dimethylamino)-2-methylpyrimidin-4-yl]amino}phenyl)amino]sulfonyl}phenyl)acetamide], for which, under setting [1], the IC50 is 29.4 ± 6.3 µM. Also, the “Potency for GLUT2 relative to GLUT3 (IC50 ratio, weaker for GLUT2)” value (IC50 GLUT2 versus IC50 GLUT3) is recorded as “~ fourfold”. As to `Cc1ccccc1CN(Cc1nnc(C(C)(C)C)o1)c1ccc2nc(O)[nH]c2c1` [G3iF], the IC50 under setting [1] came out at 24.7 ± 8.4 µM.

The values are drawn from paper PMC8791944, “GLUT3 inhibitor discovery through in silico ligand screening and in vivo validation in eukaryotic expression systems” (Scientific Reports, 2022).
